# Numbered stars: 1 amine (or outer) side, 2 acyl side, 3 side chain; on linkers, the order of the positions; unused ones are H or OH. Bridge positions count the residues as written; N and C are the ends. Square brackets hold non-standard residues; d marks the D form. Peptide text beside a SMILES is read from it. * marks the point of attachment. X1 = CC[C@H](C)[C@@H](N[*:1])[C@@H](O)CC(=O)O[C@H](C(=O)[C@H](C)C(=O)[*:2])C(C)C; NMeY = CN[C@@H](Cc1ccc(O)cc1)C(=O)O; dNMeL = CN[C@H](CC(C)C)C(=O)O; Pyruvoyl = CC(=O)C(=O)*
# Key:
# human MM cell lines = test: MTT colorimetric survival assay, panel of MM cell lines; type: cell-based; details: for the overwhelming majority of the MM cell lines of the panel (FIG. 1), read-out: IC50 doses
# Method: (§1) Cell survival was examined using the 3-(4,5-dimethylthiazol-2-yl)-2,5-diphenyltetrazolium bromide (MTT; Sigma Chemical, St Louis, Mo.) colorimetric assay, as previously described (Mitsiades C. S. et al. Blood. 2001, 98, 795-804; Mitsiades N. et al. Proc Natl Acad Sci USA. 2002, 99, 14374-14379; Mitsiades N. et al. Blood. 2003, 101, 2377-2380). Briefly, cells were plated in 48-well plates at 70% to 80% confluence in the presence of 2.5% fetal bovine serum (FBS) and in the presence of Aplidine at final concentration of 0-100 nM or DMSO vehicle control. At the end of each treatment, cells were incubated with 1 mg/mL MTT for 4 hours at 37° C.; a mixture of isopropanol and 1 N HCl (23:2, vol/vol) was then added under vigorous pipetting to dissolve the formazan crystals. Dye absorbance (A) in viable cells was measured at 570 nm, with 630 nm as a reference wavelength. Cell viability was estimated as a percentage of the value of untreated controls. All experiments were repeated at least 3 times, and each experimental condition was repeated at least in triplicate wells in each experiment. Data reported are average values±SD of representative experiments. […]
# primary MM tumor cells [1] = test: MTT survival assay, primary MM tumor cells; type: cell-based, human; details: 10 primary tumor specimens from multi-drug resistant MM patients; 20 nM for 48 hrs (FIG. 2)
# Method: as §1
# [2] = tested on: MM-1S human MM cells stably transfected with Bcl-2; test: MTT survival assay, Bcl-2-transfected MM-1S cells; type: cell-based; details: Bcl-2-transfected MM-1S cells (FIG. 1)
# Method: as §1
# [3] = tested on: MM-1S human MM cells stably transfected with myristoylated Akt; test: MTT survival assay, myrAkt-transfected MM-1S cells; type: cell-based; details: myrAkt-transfected MM-1S cells (FIG. 1)
# Method: as §1
# [4] = tested on: primary MM tumor cells co-cultured with BMSCs; test: Co-culture of MM cells with bone marrow stromal cells, flow cytometry of viable CD138+ cells; type: cell-based, human; details: 48 hours, flow-cytometric determination of cell death (FIG. 3)
# Method: (§2) We therefore investigated whether aplidine can also overcome the molecular sequelae of the interaction of BMSCs with MM cells and achieve anti-MM activity in this context. We thus performed in vitro co-culture assays of MM cells with BMSCs as previously described: BMSCs were grown on 24-well plates to confluency. […] Flow cytometric analysis was performed to detect the CD138+ population of viable MM cells and the effect of aplidine on MM cell viability was expressed as % of viable cell numbers in comparison to the respective vehicle-treated cultures.
# VEGF secretion = test: Quantification of VEGF secretion by ELISA; type: cell-based, human; details: 20 nM
# Text: MM cell adhesion to BMSCs induces increased secretion of angiogenic cytokines, such as vascular endothelial growth factor (VEGF), an event deemed of major significance for the recruitment of new blood vessels at the sites of MM cells in the BM milieu. […] The supernatants were collected and assayed for VEGF concentration by enzyme-linked immunosorbent assay (ELISA) using a commercially available kit (VEGF ELISA kit; R&D Systems), according to the instructions of the manufacturer.
# primary MM tumor cells [5] = test: MTT survival assay, combination with doxorubicin; type: cell-based, human; details: aplidine 2 nM with doxorubicin 10 ng/mL, primary MM tumor sample (FIG. 5)
# [6] = tested on: multiple myeloma line overexpressing Bcl-2; test: XTT or MTS cell viability assay, Bcl-2 overexpressing MM line; type: cell-based; details: cells in culture, XTT or MTS (FIG. 7)
# Method: Aplidine was tested against various established cells in culture.
# BMSCs = details: at the aplidine doses used in the co-culture
# Method: as §2
# [7] = tested on: multiple myeloma lines resistant to dexamethasone (MM 1.R); details: cells in culture, XTT or MTS (FIG. 6)
# Method: The cells used were: • multiple myeloma cells (MM1.S) • multiple myeloma lines resistant to dexamethasone (MM 1.R) • a multiple myeloma line overexpressing Bcl-2
# For established cell lines, cells were plated in 96 well plates and allowed to grow for 24 h prior to addition of drugs. Cells were incubated with drug for indicated times and cell viability was measured by the XTT or MTS assay using an automated plate reader.
# [8] = tested on: non-small-cell lung tumor cells; details: cited from earlier work
# colon tumor cells = details: cited from earlier work
# B16 melanoma = details: murine tumors such as B16 melanoma; cited from earlier work
# breast MX-1 = details: mice bearing human xenografted tumors; cited from earlier work
# colon CX-1 = details: mice bearing human xenografted tumors; cited from earlier work
# [9] = tested on: gastric, prostate and Burkitts lymphoma human xenografts; details: subcutaneous implanted gastric; cited from earlier work
# bladder carcinoma = bladder carcinoma in the hollow fiber; cited from earlier work
# [10] = phase I/II trials; cited from earlier work
# [11] = solubilised aplidine; cited from earlier work
# [12] = tested on: NCI human in vitro panel cell lines; details: cited from earlier work
structure (smiles),measurement,setting,value
"CC[C@H](C)[C@H]1NC(=O)[C@@H](NC(=O)[C@@H](CC(C)C)N(C)C(=O)[C@@H]2CCCN2C(=O)C(C)=O)[C@@H](C)OC(=O)[C@H](Cc2ccc(OC)cc2)N(C)C(=O)[C@@H]2CCCN2C(=O)[C@H](CC(C)C)NC(=O)[C@@H](C)C(=O)[C@H](C(C)C)OC(=O)C[C@@H]1O [Aplidine, Dehydrodidemnin B] (Pyruvoyl-P[dNMeL]T[X1]LP[NMeY](Me); ester 3-C)",IC50,human MM cell lines,≤ 10000 pM
same,in vitro anti-MM activity,primary MM tumor cells [1],consistent with the results obtained from the testing of our cell line panel
same,sensitivity to aplidine vs. empty-vector transfected cells,[2],did not have lower sensitivity
same,sensitivity to aplidine vs. empty-vector transfected cells,[3],did not have lower sensitivity
same,effect of MM-BMSC interaction on in vitro anti-MM activity,[4],did not significantly attenuate
same,VEGF secretion when MM cells are co-cultured with BMSCs,"VEGF secretion; 12-hour treatment, co-culture (FIG. 4B)",counteract the increase in VEGF secretion
same,secretion of VEGF by MM cells,"VEGF secretion; 12-hour treatment, primary MM tumor cells (FIGS. 4A and 4B)",suppress the secretion of VEGF
same,VEGF secretion by BMSCs,"VEGF secretion; 12 hrs, BMSCs (FIG. 4B)",suppresses the VEGF secretion
same,responsiveness of MM cells to doxorubicin in combination with Aplidine,primary MM tumor cells [5],increased responsiveness to doxorubicin
same,growth of Bcl-2 overexpressing MM cells,[6],inhibits growth
same,survival of BMSCs,BMSCs,did not significantly affect
same,growth inhibition of dexamethasone resistant MM1.R cells compared with MM1.S,[7],as effectively as the parenteral line (MM1.S)
same,IC50,[8],180 pM
same,IC50,colon tumor cells,450 pM
same,in vivo activity,B16 melanoma,in vivo activity
same,in vivo activity,breast MX-1,confirm activity
same,in vivo activity,colon CX-1,confirm activity
same,in vivo antitumor activity,[9],in vivo antitumor activity
same,in vivo antitumor activity,bladder carcinoma,in vivo antitumor activity
same,dose-limiting toxicity,[10],muscular toxicity
same,myelosuppression,[10],remarkable lack of severe myelosuppression
same,degradation under heat and light stress testing conditions,[11],substantial degradation
same,selectivity in the NCI human in vitro panel,[12],"selectivity for non-small-cell lung cancer (NSCLC), melanoma, ovarian and colorectal cancer cell lines"
